# Patent publication US12202805B2, “Process for preparing (5S)-{[2-(4-carboxyphenyl)ethyl] |2-(2-{|3-chloro-4'-(trifluoromethyl)biphenyl-4-yl]methoxy}phenyl)ethyl]aminol-5,6,7,8-tetrahydroquinoline-2-carboxylic acid and its crystalline forms for use as pharmaceutically active compound” (Bayer Aktiengesellschaft, priority 2021, dated 2025)
# Values joined by “and” are separate entries in the source; they are usually repeats but may differ in a detail not shown here. Identical values can stand only once.
# Tested on: thromboxane A2 challenged PAH-minipig
# Assay: Haemodynamics in the anesthetized thromboxane challenged minipig, intratracheal dry powder (PAP, BP)
# Format: in vivo, Göttingen Minipigs
# Conditions: for BP (absolute values) / PAP (absolute values): lactose vehicle first, test powder 1.5 mg/4 kg i.t. @90 min, each animal (n=3); for % changes vs. baseline on PAP: baseline 100.0 at 80 min, i.t. dry powder, each animal
# Protocol: Healthy Göttingen Minipigs® Ellegaard (Ellegaard, Denmark) of both sexes and having a weight of 2-6 kg were used. The animals were sedated by i.m. administration of about 25 mg/kg ketamine and about 10 mg/kg azaperone. Anaesthesia was initiated by i.v. administration of about 2 mg/kg ketamine and about 0.3 mg/kg midazolam. Maintenance of anaesthesia was by i.v. administration of about 7.5-30 mg/kg/h ketamine and about 1-4 mg/kg/h midazolam (rate of infusion 1-4 ml/kg/h) and about 150 μg/kg/h pancuronium bromide (for example Pancuronium-Actavis). After intubation, the animals were ventilated by the ventilator at a constant respiratory volume (10-12 ml/kg, 35 breaths/min; Avea®, Viasys Healthcare, USA, or Engström Carestation, GE Healthcare, Freiburg, Germany) such that an end-tidal CO2 concentration of about 5% was achieved. Ventilation was performed with room air, enriched with about 40% oxygen (normoxia). For the measurement of the haemodynamic parameters such as pulmonary arterial pressure (PAP), blood pressure (BP) and heart rate (HR), catheters were inserted into the carotid artery to measure the blood pressure, and a Swan-Ganz® catheter was introduced in a flow-directed manner via the jugular vein into the pulmonary artery. The haemodynamic signals were recorded and evaluated by means of pressure transducers (Combitransducer, B. Braun, Melsungen, Germany)/amplifiers and Ponemah® as data acquisition software.
# As reference pure Lactose vehicle was applied in the beginning of each experiment.
# [1] = time 150 min, listed as ex. 6e, sesquihydrate
# [2] = time 160 min, listed as ex. 6e, sesquihydrate
# [3] = time 170 min, listed as ex. 6e, sesquihydrate
# [4] = time 180 min, listed as ex. 6e, sesquihydrate
# [5] = time 190 min, listed as ex. 6e, sesquihydrate
# [6] = time 200 min, listed as ex. 6e, sesquihydrate
# [7] = time 210 min, listed as ex. 6e, sesquihydrate
# [8] = time 220 min, listed as ex. 6e, sesquihydrate
# [9] = time 230 min, listed as ex. 6e, sesquihydrate
# [10] = time 240 min, listed as ex. 6e, sesquihydrate
# [11] = time 250 min, listed as ex. 6e, sesquihydrate
# [12] = time 260 min, listed as ex. 6e, sesquihydrate
# [13] = time 270 min, listed as ex. 6e, sesquihydrate
# [14] = time 280 min, listed as ex. 6e, sesquihydrate
# [15] = time 290 min, listed as ex. 6e, sesquihydrate
# [16] = time 300 min, listed as ex. 6e, sesquihydrate
# [17] = time 310 min, listed as ex. 6e, sesquihydrate
# [18] = time not given, 1st row after 310 min, listed as ex. 6e, sesquihydrate
# [19] = time not given, 2nd row after 310 min, listed as ex. 6e, sesquihydrate
# [20] = time −10 min, 375 μg/kg i.t., sesquihydrate
smiles,measurement,setting,value
"O.O.O.O=C(O)c1ccc(CCN(CCc2ccccc2OCc2ccc(-c3ccc(C(F)(F)F)cc3)cc2Cl)[C@H]2CCCc3nc(C(=O)O)ccc32)cc1.O=C(O)c1ccc(CCN(CCc2ccccc2OCc2ccc(-c3ccc(C(F)(F)F)cc3)cc2Cl)[C@H]2CCCc3nc(C(=O)O)ccc32)cc1 [example 6e, (5S)—{[2-(4-Carboxyphenyl)ethyl][2-(2-{[3-chloro-4′-(trifluoromethyl)biphenyl-4-yl]methoxy}phenyl)-ethyl]amino}-5,6,7,8-tetrahydroquinoline-2-carboxylic acid sesquihydrate]",BP (absolute values),time 150 min,99 mmHg
same,BP (absolute values),[1],121 mmHg and 114 mmHg
same,PAP (absolute values),[1],30.3 mmHg and 29.0 mmHg and 26.6 mmHg
same,% changes vs. baseline on PAP,"time 160 min, sesquihydrate",71.0% and 79.5% and 65.9%
same,BP (absolute values),time 160 min,100 mmHg
same,BP (absolute values),[2],122 mmHg and 114 mmHg
same,PAP (absolute values),[2],29.0 mmHg and 30.3 mmHg and 26.9 mmHg
same,% changes vs. baseline on PAP,"time 170 min, sesquihydrate",68.5% and 74.3% and 61.5%
same,BP (absolute values),[3],101 mmHg and 121 mmHg and 115 mmHg
same,PAP (absolute values),[3],28.0 mmHg and 28.3 mmHg and 25.1 mmHg
same,% changes vs. baseline on PAP,"time 180 min, sesquihydrate",63.2% and 80.8% and 62.0%
same,BP (absolute values),time 180 min,99 mmHg
same,BP (absolute values),[4],119 mmHg and 115 mmHg
same,PAP (absolute values),[4],25.8 mmHg and 30.8 mmHg and 25.3 mmHg
same,% changes vs. baseline on PAP,"time 190 min, sesquihydrate",61.5% and 80.8% and 58.6%
same,BP (absolute values),time 190 min,99 mmHg
same,BP (absolute values),[5],123 mmHg and 114 mmHg
same,PAP (absolute values),[5],30.8 mmHg and 23.9 mmHg
same,% changes vs. baseline on PAP,"time 200 min, sesquihydrate",62.3% and 80.3% and 60.2%
same,BP (absolute values),time 200 min,98 mmHg
same,BP (absolute values),[6],116 mmHg and 113 mmHg
same,PAP (absolute values),[6],25.5 mmHg and 30.6 mmHg and 24.6 mmHg
same,% changes vs. baseline on PAP,"time 210 min, sesquihydrate",61.0% and 80.7% and 59.4%
same,BP (absolute values),time 210 min,99 mmHg
same,BP (absolute values),[7],117 mmHg and 116 mmHg
same,PAP (absolute values),[7],25.0 mmHg and 30.8 mmHg and 24.2 mmHg
same,% changes vs. baseline on PAP,"time 220 min, sesquihydrate",59.5% and 86.3% and 57.8%
same,BP (absolute values),time 220 min,97 mmHg
same,BP (absolute values),[8],123 mmHg and 114 mmHg
same,PAP (absolute values),[8],24.3 mmHg and 32.9 mmHg and 23.6 mmHg
same,% changes vs. baseline on PAP,"time 230 min, sesquihydrate",58.6% and 82.6% and 57.8%
same,BP (absolute values),time 230 min,97 mmHg
same,BP (absolute values),[9],119 mmHg and 114 mmHg
same,PAP (absolute values),[9],24.0 mmHg and 31.5 mmHg and 23.6 mmHg
same,% changes vs. baseline on PAP,"time 240 min, sesquihydrate",59.3% and 81.5% and 57.6%
same,BP (absolute values),time 240 min,97 mmHg
same,BP (absolute values),[10],119 mmHg and 112 mmHg
same,PAP (absolute values),[10],24.3 mmHg and 31.0 mmHg and 23.5 mmHg
same,% changes vs. baseline on PAP,"time 250 min, sesquihydrate",59.3% and 82.2% and 56.1%
same,BP (absolute values),time 250 min,97 mmHg
same,BP (absolute values),[11],118 mmHg and 111 mmHg
same,PAP (absolute values),[11],24.2 mmHg and 31.3 mmHg and 22.9 mmHg
same,% changes vs. baseline on PAP,"time 260 min, sesquihydrate",58.8% and 82.7% and 57.6%
same,BP (absolute values),time 260 min,96 mmHg
same,BP (absolute values),[12],116 mmHg and 112 mmHg
same,PAP (absolute values),[12],24.0 mmHg and 31.5 mmHg and 23.5 mmHg
same,% changes vs. baseline on PAP,"time 270 min, sesquihydrate",59.9% and 78.3% and 55.4%
same,BP (absolute values),time 270 min,99 mmHg
same,BP (absolute values),[13],115 mmHg and 109 mmHg
same,PAP (absolute values),[13],24.5 mmHg and 29.8 mmHg and 22.6 mmHg
same,% changes vs. baseline on PAP,"time 280 min, sesquihydrate",58.4% and 78.3% and 55.9%
same,BP (absolute values),[14],97 mmHg and 111 mmHg and 110 mmHg
same,PAP (absolute values),[14],23.9 mmHg and 29.8 mmHg and 22.8 mmHg
same,% changes vs. baseline on PAP,"time 290 min, sesquihydrate",57.4% and 79.6% and 53.9%
same,BP (absolute values),[15],97 mmHg and 110 mmHg and 107 mmHg
same,PAP (absolute values),[15],23.5 mmHg and 30.3 mmHg and 22.0 mmHg
same,% changes vs. baseline on PAP,"time 300 min, sesquihydrate",60.1% and 78.7% and 54.5%
same,BP (absolute values),time 300 min,98 mmHg
same,BP (absolute values),[16],109 mmHg and 108 mmHg
same,PAP (absolute values),[16],24.6 mmHg and 30.0 mmHg and 22.2 mmHg
same,% changes vs. baseline on PAP,"time 310 min, sesquihydrate",58.4% and 77.6% and 53.7%
same,BP (absolute values),time 310 min,97 mmHg
same,BP (absolute values),[17],109 mmHg and 105 mmHg
same,PAP (absolute values),[17],23.9 mmHg and 29.6 mmHg and 21.9 mmHg
same,% changes vs. baseline on PAP,"time 320 min, sesquihydrate",61.8% and 76.3% and 55.1%
same,% changes vs. baseline on PAP,"time 330 min, sesquihydrate",61.3% and 74.8% and 53.0%
same,BP (absolute values),"time not given, 1st row after 310 min",94 mmHg
same,BP (absolute values),[18],108 mmHg and 105 mmHg
same,PAP (absolute values),[18],25.3 mmHg and 29.1 mmHg and 22.5 mmHg
same,BP (absolute values),"time not given, 2nd row after 310 min",97 mmHg
same,BP (absolute values),[19],108 mmHg and 105 mmHg
same,PAP (absolute values),[19],25.1 mmHg and 28.5 mmHg and 21.6 mmHg
same,BP (mean),"time −10 min, 375 μg/kg i.t.",99 mmHg
same,BP (mean),[20],107 mmHg and 119 mmHg
same,PAP(mean),[20],42.0 mmHg and 36.4 mmHg and 37.5 mmHg
